Earlier results, collected in US9044508B2, “Concentrated aqueous azalide formulations” (INSITE VISION CORPORATION, priority 2013, dated 2015).

Details: aqueous formulation

In the case of `CC[C@H]1OC(=O)[C@H](C)[C@@H](O[C@H]2C[C@@](C)(OC)[C@@H](O)[C@H](C)O2)[C@H](C)[C@@H](O[C@@H]2O[C@H](C)C[C@H](N(C)C)[C@H]2O)[C@](C)(O)C[C@@H](C)CN(C)[C@H](C)[C@@H](O)[C@]1(C)O` [azithromycin, N-methyl-1′-aza-10-deoxo-10-dihydroerythromycin], the “pH of maximum stability” value is listed as “about 6.3”.
